What is called IC50 is the concentration that gives 50% inhibition.

Results on 15 molecules are retold here after US12156880B2, “Heterocyclic RIP1 kinase inhibitors” (Rigel Pharmaceuticals, Inc., priority 2021, dated 2024).

In test [1] the test system is L929 cells. The test can be described thus: L929 cell necroptosis assay (TNFa + zVAD, CellTiter-Glo recovery). It counts as cell-based, murine. Details: L929-CTG-recovery, L929, TNFa + zVAD (IC50): unit not given here. The settings on record: TNFa 2 ng/mL + zVAD-fmk; for IC50: Mus musculus, L929, 18 h, read-out: L929-CTG-recovery, L929, TNFa + zVAD (IC50); for L929-CTG-recovery, L929, TNFa + zVAD (IC50): 18 hours. Here is the method:
(§1) In this example, U937 and L929 cells were exposed to compounds of the present disclosure and a cell necroptosis assay was conducted to evaluate the compounds' activity against human RIP1 and murine RIP1.
(§2) U937 and L929 cells were obtained from the American Type Culture Collection (Manassas, VA, USA). Both cells were maintained in logarithmic growth phase in complete RPMI 1640 media (Sigma, ST Louis, MO, USA) supplemented with 10% fetal bovine serum (Sigma, ST Louis, MO, USA) at 37° C. with 5% CO2. For necroptosis assay, L929 cells were plated for 18 h in 100 μL/well medium at 10K cells/well in Costar 96-well black clear-bottom plates (Fisher Scientific, Hampton, NH, USA); U937 cells were plated on the day of the assay in 50 μL/well medium containing 60 uM zVAD-fmk (Lonza, Basel, Switzerland) at 50K cells/well. Medium from L929 cells were removed from the 96-well plates and replaced with 50 μL/well new medium containing 40 uM zVAD-fmk. Each compound of the present disclosure evaluated in this example was serially diluted in DMSO from 2.5 mM in 4-fold dilutions, and then diluted 1:125 in complete medium. 50 μL/well 2× of the compound was then added to the cells in the plates. The cells were pre-incubated with the compound for 1 hour at 37° C. with 5% CO2 and before addition of 10 μL/well 11×TNFa (Peprotech, Rocky Hill, NJ, USA) to give a final concentration of 2 ng/mL for TNFa. The relative amount of necroptosis cells was determined by luminescent using a Wallac Victor2 Luminometer (PerkinElmer, Waltham, MA, USA) and a CellTiter-Glo® Luminescent Cell Viability Reagent Assay (Promega, Madison, WI, USA) added per manufacturer instructions after 18 hours of TNFa stimulation at 37° C. with 5% CO2. This example establishes that embodiments of the compounds described herein have unexpectedly potent activity against human RIP1 and murine RIP1, which allows their assessment in in vivo mouse models of disease.

The target of test [2] is T1, RIPK1 (Homo sapiens, UniProt Q13546).
T1 sequence (Q13546 1-671): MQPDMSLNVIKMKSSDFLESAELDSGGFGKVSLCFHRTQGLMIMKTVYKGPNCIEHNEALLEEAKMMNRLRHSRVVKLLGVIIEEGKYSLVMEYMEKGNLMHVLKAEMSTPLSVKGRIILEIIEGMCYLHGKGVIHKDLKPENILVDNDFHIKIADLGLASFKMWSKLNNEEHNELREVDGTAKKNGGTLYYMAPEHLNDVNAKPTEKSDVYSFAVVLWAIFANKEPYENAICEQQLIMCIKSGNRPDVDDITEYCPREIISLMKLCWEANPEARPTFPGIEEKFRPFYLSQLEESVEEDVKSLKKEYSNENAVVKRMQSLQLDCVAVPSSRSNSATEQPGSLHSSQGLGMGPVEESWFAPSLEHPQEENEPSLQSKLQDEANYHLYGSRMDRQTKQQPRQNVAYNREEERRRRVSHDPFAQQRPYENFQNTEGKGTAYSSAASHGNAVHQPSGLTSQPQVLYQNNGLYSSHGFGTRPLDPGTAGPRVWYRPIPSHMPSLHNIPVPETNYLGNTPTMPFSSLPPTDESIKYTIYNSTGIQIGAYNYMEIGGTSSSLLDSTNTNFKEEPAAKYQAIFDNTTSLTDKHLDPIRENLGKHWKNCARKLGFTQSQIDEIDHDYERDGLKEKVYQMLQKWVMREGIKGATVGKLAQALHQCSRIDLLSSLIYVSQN
The test can be described thus: RIPK1 ADP-Glo biochemical kinase assay. The settings on record: read-out: RIPK1 ADP-Glo Kinase (IC50). As for the experimental part:
In this example, compounds of the disclosure were evaluated using a biochemical assay using the ADP-Glo™ technology.
ADP-Glo™ (Promega, Madison, WI, USA) reagents were thawed at ambient temperature. Kinase Detection Reagent was prepared by mixing kinase detection buffer with the lyophilized kinase detection substrate.
A […] stock volume of 5× Reaction Kinase Buffer was made by mixing 1000 μl of 1M MgCl2, 500 μl of 1M Tris-HCL pH7.4, 0.5 mg/ml (25 mg) of BSA, and 3475 μl of distilled H2O. A 3 ml 2× working stock volume of Reaction Kinase Buffer was made containing a final concentration of 100 μM DTT and 4 mM MnCl2.
Components of RIPK1 enzyme (Rigel Pharmaceuticals, South San Francisco, CA, USA) were thawed on ice. Diluted RIPK1 was prepared in 1× Kinase Reaction Buffer (diluted from 2× buffer) to 31 ng/well.
1.0 ul of diluted compound was added to a 384 well plate in duplicate. […] The final reaction volume was 5.0 μl.
The plate was quickly centrifuged and the reaction was incubated at 30° C. for 30 minutes. Adding 5 μl of ADP-Glo™ terminated the reaction. The plate was quickly centrifuged and the reaction was incubated at room temperature for 40 minutes. Kinase Detection Reagent was then added and incubated at room temperature for 30 minutes. The relative light unit (RLU) of kinase reaction was determined by luminescent (Luminescence 0.1 s) using a Wallac Victor2 Luminometer (PerkinElmer, Waltham, MA, USA).
A general note: In ADP-Glo the light output rises with the ADP produced.

Test [3] relates to U937 cells. The test can be described thus: U937 cell necroptosis assay (TNFa + zVAD, CellTiter-Glo recovery). The format is cell-based. Conditions: Homo sapiens, U-937, 18 h, TNFa 2 ng/mL + zVAD-fmk, read-out: U937 Zvad TNF CTG Recovery, U937, TNFa + zVAD (IC50). As for the experimental part:
as §1, §2
On the technique in general: In ATP-based viability assays light output follows the ATP content of the culture.

Consider `CN1C(=O)[C@@H](NC(=O)c2cc(Oc3cnn(C)c3)ccn2)COc2ccc(C#CC3CCOCC3)cc21` [I-136, (S)-4-((1-methyl-1H-pyrazol-4-yl)oxy)-N-(5-methyl-4-oxo-7-((tetrahydro-2H-pyran-4-yl)ethynyl)-2,3,4,5-tetrahydrobenzo[b][1,4]oxazepin-3-yl)picolinamide], for which the IC50 in test [1] amounted to 5.4 nM; in test [2], 7.7 nM; in test [3] it was 0.7 nM.

Turning to `CN1C(=O)[C@@H](NC(=O)c2cc(Oc3cccnc3C#N)ccn2)COc2ccc(C#CC3(O)COC3)cc21` [I-92, (S)-4-((2-cyanopyridin-3-yl)oxy)-N-(7-((3-hydroxyoxetan-3-yl)ethynyl)-5-methyl-4-oxo-2,3,4,5-tetrahydrobenzo[b][1,4]oxazepin-3-yl)picolinamide], the half-maximal inhibitory concentration (IC50) in test [1] was found to be 7870 nM; in test [2], 20.8 nM; in test [3], 158 nM.

Turning to `CN1C(=O)[C@@H](NC(=O)c2cc(Cc3cccnc3F)ccn2)COc2ccc(C#CC3COC3)cc21` [I-52, (S)-4-((2-fluoropyridin-3-yl)methyl)-N-(5-methyl-7-(oxetan-3-ylethynyl)-4-oxo-2,3,4,5-tetrahydrobenzo[b][1,4]oxazepin-3-yl)picolinamide], the concentration for half-maximal inhibition (IC50) is 657 nM in test [1], 16.5 nM in test [2] and 2.2 nM in test [3].

In the case of `CN1C(=O)[C@@H](NC(=O)n2cc(Cc3ccccn3)cn2)COc2ccc(Br)cc21` [I-18, (S)—N-(7-Bromo-5-methyl-4-oxo-2,3,4,5-tetrahydrobenzo[b][1,4]oxazepin-3-yl)-4-(pyridin-2-ylmethyl)-1H-pyrazole-1-carboxamide], in test [1], the “L929-CTG-recovery, L929, TNFa + zVAD (IC50)” value (“L929-CTG-recovery, L929” for short) is recorded as 5013. Also, in test [3], the half-maximal inhibitory concentration (IC50) was 286 nM.

For the molecule `CN1C(=O)[C@@H](NC(=O)c2cc(Cc3cccc(F)n3)ccn2)COc2ccc(C#CC3(O)COC3)cc21` [I-7, (S)-4-((6-fluoropyridin-2-yl)methyl)-N-(7-((3-hydroxyoxetan-3-yl)ethynyl)-5-methyl-4-oxo-2,3,4,5-tetrahydrobenzo[b][1,4]oxazepin-3-yl)picolinamide], the values for the IC50 in test [1], in test [2] and in test [3] were 449 nM, 18.6 nM and 14.8 nM, respectively.

As for `CN1C(=O)[C@@H](NC(=O)c2cc(Oc3cnn(C)c3)ccn2)COc2ccc(C#CC(C)(C)C)cc21` [I-132, (S)—N-(7-(3,3-dimethylbut-1-yn-1-yl)-5-methyl-4-oxo-2,3,4,5-tetrahydrobenzo[b][1,4]oxazepin-3-yl)-4-((1-methyl-1H-pyrazol-4-yl)oxy)picolinamide], the IC50 came out at 71.8 nM in test [1], 24.2 nM in test [2] and 4.1 nM in test [3].

Consider `Cc1nc(Cc2ccnc(C(=O)N[C@H]3COc4ccc(C#CC(C)(C)C)cc4N(C)C3=O)c2)cs1` [I-96, (S)—N-(7-(3,3-dimethylbut-1-yn-1-yl)-5-methyl-4-oxo-2,3,4,5-tetrahydrobenzo[b][1,4]oxazepin-3-yl)-4-((2-methylthiazol-4-yl)methyl)picolinamide], for which the IC50 in test [1] was 242 nM; in test [2], 396 nM; in test [3] it was 84.2 nM.

As to `CN1C(=O)[C@@H](NC(=O)n2cc(Cc3ccncc3)cn2)COc2ccc(Br)cc21` [I-28, (S)—N-(7-Bromo-5-methyl-4-oxo-2,3,4,5-tetrahydrobenzo[b][1,4]oxazepin-3-yl)-4-(pyridin-4-ylmethyl)-1H-pyrazole-1-carboxamide], the “L929-CTG-recovery, L929” value in test [1] is 5027. In addition, in test [3], the 50% inhibitory concentration (IC50) was 235 nM.

As for `CN1C(=O)[C@@H](NC(=O)n2cc(Cc3cccc(C(F)(F)F)n3)cn2)COc2ccc(Br)cc21` [I-21, (S)—N-(7-Bromo-5-methyl-4-oxo-2,3,4,5-tetrahydrobenzo[b][1,4]oxazepin-3-yl)-4-((6-(trifluoromethyl)pyridin-2-yl)methyl)-1H-pyrazole-1-carboxamide], the 50% inhibitory concentration (IC50) in test [1] turned out to be 30400 nM; in test [3], 1370 nM.

Regarding `CN1C(=O)[C@@H](NC(=O)n2cc(Cc3ncccn3)cn2)COc2ccc(C#CC(C)(C)O)cc21` [I-31, (S)—N-(7-(3-Hydroxy-3-methylbut-1-yn-1-yl)-5-methyl-4-oxo-2,3,4,5-tetrahydrobenzo[b][1,4]oxazepin-3-yl)-4-(pyrimidin-2-ylmethyl)-1H-pyrazole-1-carboxamide], the half-inhibitory concentration (IC50) turned out to be 106 nM in test [2] and 1980 nM in test [3].

Regarding `CN1C(=O)[C@@H](NC(=O)n2cc(Cc3cccnc3)cn2)COc2ccc(Br)cc21` [I-22, (S)—N-(7-Bromo-5-methyl-4-oxo-2,3,4,5-tetrahydrobenzo[b][1,4]oxazepin-3-yl)-4-(pyridin-3-ylmethyl)-1H-pyrazole-1-carboxamide], in test [1], the “L929-CTG-recovery, L929” value turned out to be 5004. For the same molecule, in test [3], the 50% inhibitory concentration (IC50) is 35.1 nM.

In the case of `CN1C(=O)[C@@H](NC(=O)c2cc(Oc3ccccn3)ccn2)COc2ccc(C#CC3(O)COC3)cc21` [I-129, (S)—N-(7-((3-hydroxyoxetan-3-yl)ethynyl)-5-methyl-4-oxo-2,3,4,5-tetrahydrobenzo[b][1,4]oxazepin-3-yl)-4-(pyridin-2-yloxy)picolinamide], the IC50 in test [2] was determined as 2280 nM; in test [3], 1200 nM.

`CN1C(=O)[C@@H](NC(=O)c2cc(Cc3cocn3)ccn2)COc2ccc(C#CC3(O)COC3)cc21` [I-138, (S)—N-(7-((3-hydroxyoxetan-3-yl)ethynyl)-5-methyl-4-oxo-2,3,4,5-tetrahydrobenzo[b][1,4]oxazepin-3-yl)-4-(oxazol-4-ylmethyl)picolinamide]: the IC50 is 106 nM in test [1] and 12.9 nM in test [3].

For the molecule `CN1C(=O)[C@@H](NC(=O)n2cc(Cc3cccc(F)n3)cn2)COc2ccc(Br)cc21` [I-20, (S)—N-(7-Bromo-5-methyl-4-oxo-2,3,4,5-tetrahydrobenzo[b][1,4]oxazepin-3-yl)-4-((6-fluoropyridin-2-yl)methyl)-1H-pyrazole-1-carboxamide], the “L929-CTG-recovery, L929” value in test [1] turned out to be 5004. Further, the IC50 in test [3] stood at 50.2 nM.

Consider `CN1C(=O)[C@@H](NC(=O)n2cc(Oc3cccc(F)n3)cn2)COc2ccc(C#CC3CCOCC3)cc21` [I-111, (S)-4-((6-Fluoropyridin-2-yl)oxy)-N-(5-methyl-4-oxo-7-((tetrahydro-2H-pyran-4-yl)ethynyl)-2,3,4,5-tetrahydrobenzo[b][1,4]oxazepin-3-yl)-1H-pyrazole-1-carboxamide], for which the IC50 was 85200 nM in test [1] and 7270 nM in test [3].
